{
  "source": "patent US20040203067A1",
  "about": "“Methods for cancer prognosis and screening antiproliferative agents” (Temple University - Of The Commonwealth System of Higher …, priority 1998, published 2004)",
  "key": {"[1]": {"test_system": "BT20 cells", "test": "Killing of BT20 cells determined by Trypan blue exclusion", "type": "cell-based, human", "conditions": "2.5 μM in DMSO, within 72 hours of treatment"}, "[2]": {"test_system": "phospho-STAT-3", "test": "Phospho-STAT-3 immunoassay (Western blot) in BT20 breast cancer cells", "type": "cell-based, human", "conditions": "25 μM", "protocol": "Human breast carcinoma cell lines, BT20, 126, T47D, MCF-7, ZR75, BT474, 415, and 435 were maintained in Dulbecco's modified eagle medium (DMEM), supplemented with 10% fetal bovine serum (FBS) (complete medium) in a 37° C. incubator with 5% CO2. STAT-3 (C-20) antibody, which recognizes phosphorylated and non-phosphorylated STAT-3, was purchased from Santa Cruz Biotechnologies and utilized as a positive control. Phospho-STAT-3 antibody was purchased from New England Biolabs. Rabbit anti-mouse antibody (secondary antibody for anti-STAT-3 and antiphospho-STAT-3) were purchased from Amersham International.\nBT-20 cells were seeded at a density of 2×10^6 cells per 100 mm diameter dish and allowed to grow for 24 hours. Fresh medium was added to each plate 2 hours before treatment with the compound. The compound was dissolved in DMSO to make 5 mM stock solution and added to the medium (10 ml) to obtain a final concentration of 25 μM. DMSO alone was added to the control cells to study the effect of vehicle. […]\nEqual amounts total protein ([…]) were run in each lane of SDS-PAGE gel (10%) and transferred to IMMOBILON-P (Millipore, USA). […] The antibody was detected using the ECL Western blotting analysis kit (Amersham International) following the manufacturer's instructions."}},
  "data": [
    {"smiles": "O=S(=O)(/C=C/c1ccc(F)cc1)Cc1ccc(Cl)cc1", "note": "[FRI-20, E-4-fluorostyryl 4-chlorobenzyl sulfone]", "values": [
      {"measurement": "BT20 cells killed", "setting": "[1]", "value": "more than 95%"},
      {"measurement": "phospho-STAT-3 staining after treatment", "setting": "[2]; 48 hours at 37° C., phospho-STAT-3 antibody Western blot (FIG. 9)", "value": "complete loss of phospho-STAT-3"},
      {"measurement": "STAT-3 staining (STAT-3 expression) after treatment", "setting": "[2]; 48 hours, STAT-3 antibody Western blot (FIG. 9)", "value": "stained positive for STAT-3"}
    ]}
  ]
}
